Like-named read-outs stand apart in the source and are kept apart here.
Experiments:
[1] = biological target: T1, 5-HT2A (Homo sapiens, UniProt P28223); experiment: NanoBiT miniGαq recruitment assay at 5-HT2A; conditions: 2 h AUC; for EC50: LSD as reference agonist
Target sequence in this assay (P28223 whole entry): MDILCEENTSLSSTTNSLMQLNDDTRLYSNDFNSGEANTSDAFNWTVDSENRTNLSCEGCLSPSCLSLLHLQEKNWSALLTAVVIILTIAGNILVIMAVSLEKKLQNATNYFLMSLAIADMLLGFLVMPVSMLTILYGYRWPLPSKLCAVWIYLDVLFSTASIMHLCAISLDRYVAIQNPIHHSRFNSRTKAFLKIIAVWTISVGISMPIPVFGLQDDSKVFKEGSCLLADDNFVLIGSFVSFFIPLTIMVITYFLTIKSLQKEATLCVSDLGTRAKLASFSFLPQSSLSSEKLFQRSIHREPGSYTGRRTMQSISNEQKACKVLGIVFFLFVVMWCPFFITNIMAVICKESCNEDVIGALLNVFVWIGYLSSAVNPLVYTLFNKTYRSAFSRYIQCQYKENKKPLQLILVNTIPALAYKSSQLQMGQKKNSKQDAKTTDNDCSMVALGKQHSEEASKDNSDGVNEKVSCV

[2] = tested on: 5-HT2A receptor; experiment: Bias factor; conditions: LSD as reference agonist, 2 h AUC; positive = βarr2 preference
[3] = biological target: T1, 5-HT2A; experiment: NanoBiT βarr2 recruitment assay at 5-HT2A; conditions: 2 h AUC; for EC50: β-arrestin2 EC50 (nM) (95% CI)
Target sequence in this assay (P28223 whole entry): as above
Target sequence in this assay (P32121 whole entry partner): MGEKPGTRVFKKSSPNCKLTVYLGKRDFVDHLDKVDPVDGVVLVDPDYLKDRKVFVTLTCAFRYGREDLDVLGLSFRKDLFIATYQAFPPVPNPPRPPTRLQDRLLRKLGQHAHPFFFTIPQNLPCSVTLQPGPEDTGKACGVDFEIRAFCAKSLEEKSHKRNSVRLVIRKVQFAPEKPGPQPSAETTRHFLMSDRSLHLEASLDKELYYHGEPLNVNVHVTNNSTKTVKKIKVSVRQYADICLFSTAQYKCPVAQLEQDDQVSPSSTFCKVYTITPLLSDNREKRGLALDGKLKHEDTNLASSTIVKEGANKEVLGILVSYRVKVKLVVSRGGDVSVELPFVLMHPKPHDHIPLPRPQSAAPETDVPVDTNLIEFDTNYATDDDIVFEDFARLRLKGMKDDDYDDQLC

[4] = biological target: T1, 5-HT2A; conditions: PI hydrolysis assay; cited from earlier work
Target sequence in this assay (P28223 whole entry, species assumed): as the sequence (P28223 whole entry) above
Target sequence in this assay (P32121 whole entry partner, species assumed): as the sequence (P32121 whole entry partner) above

SMILES	EC50 ([1]; miniGαq EC50 (nM) (95% CI))	β (bias factor) [2]	EC50 ([3]; LSD as reference agonist) [nM]	β-arrestin2 EC50 (nM) (95% CI) ([3]; LSD as reference agonist)	miniGαq Emax (%) (95% CI) ([1]; normalized to Emax of LSD)	β-arrestin2 Emax (%) (95% CI) ([3]; normalized to Emax of LSD)	EC50 ([1]; miniGαq pEC50 (95% CI)) [nM]	EC50 [4]
COc1cc(CCN)c(OC)cc1C#N.Cl [2C-CN (1j), 4-(2-Aminoethyl)-2,5-dimethoxybenzonitrile Hydrochloride]	503	0.412	174					
COc1cc([N+](=O)[O-])c(OC)cc1CCNCc1ccccc1O.Cl [25N-NBOH (2e), 2-(((2,5-Dimethoxy-4-nitrophenethyl)amino)methyl)phenol Hydrochloride]	1.73	0.454	0.662	sub-nanomolar				
CCN(CC)C(=O)[C@@H]1C=C2c3cccc4[nH]cc(c34)C[C@H]2N(C)C1 [LSD, lysergic acid diethylamide, reference compound]		0			98.4 (90.4–107) %	99.4 (92.5–106) %		
CCCSc1cc(OC)c(CCNCc2ccccc2O)cc1OC.Cl [25T7-NBOH (2c), 2-(((2,5-Dimethoxy-4-(propylthio)phenethyl)amino)methyl)phenol Hydrochloride]	17.5	0.209	13.9					
COc1cc([N+](=O)[O-])c(OC)cc1CCNCc1ccccc1F.Cl [25N-NBF (2g), 2-(2,5-Dimethoxy-4-nitrophenyl)-N-(2-fluorobenzyl)ethan-1-amine Hydrochloride]	74.7	0.858	14.2					
CCOCc1cc(OC)c(CCN)cc1OC.Cl [1d, 2-(4-(Ethoxymethyl)-2,5-dimethoxyphenyl)ethan-1-amine Hydrochloride]	75	0.323	26.4					
NCCc1c[nH]c2ccc(O)cc12 [5-HT, 5-hydroxytryptamine, reference compound]		0.680						
COc1cc([N+](=O)[O-])c(OC)cc1CCN.Cl [2C-N (1g), 2-(2,5-Dimethoxy-4-nitrophenyl)ethan-1-amine Hydrochloride]	92.5	0.305	32.2					
COc1cc(SC)c(OC)cc1CCNCc1ccccc1O.Cl [25T-NBOH (2a), 2-(((2,5-Dimethoxy-4-(methylthio)phenethyl)amino)methyl)phenol Hydrochloride]	4.45	0.447	1.94					
COc1cc(SC)c(OC)cc1CC(C)N.Cl (centres unmarked) [DOT (1h), 1-(2,5-Dimethoxy-4-(methylthio)phenyl)propan-2-amine Hydrochloride]	65.8	0.436	14.5					
COc1cc(SC)c(OC)cc1CCN.Cl [2C-T (1e), 2-(2,5-Dimethoxy-4-(methylthio)phenyl)ethan-1-amine Hydrochloride]	37.1	0.343	13.1					
CCCSc1cc(OC)c(CCN)cc1OC.Cl [2C-T-7 (1f), 2-(2,5-Dimethoxy-4-(propylthio)phenyl)ethan-1-amine Hydrochloride]	14.3	0.291	4.99				14.1	
CCCc1cc(OC)c(CCN)cc1OC.Cl [2C-P (1c), 2-(2,5-Dimethoxy-4-propylphenyl)ethan-1-amine Hydrochloride]	37.6	0.313	10.2				37.2	
COc1cc([N+](=O)[O-])c(OC)cc1CCNCc1cccc2c1OCO2.Cl [25N-NBMD (2h), N-(Benzo[d][1,3]dioxol-4-ylmethyl)-2-(2,5-dimethoxy-4-nitrophenyl)ethan-1-amine Hydrochloride]	9.32	0.791	2					
COc1cc(SC)c(OC)cc1CCNCc1ccccc1OC.Cl [25T-NBOMe (2b), 2-(2,5-Dimethoxy-4-(methylthio)phenyl)-N-(2-methoxybenzyl)ethan-1-amine Hydrochloride]	4.22	0.332	2.05					
CCCSc1cc(OC)c(CC(C)N)cc1OC.Cl (centres unmarked) [DOT-7 (1i), 1-(2,5-Dimethoxy-4-(propylthio)phenyl)propan-2-amine Hydrochloride]	7.63	0.305	2.18					
CCCSc1cc(OC)c(CCNCc2ccccc2OC)cc1OC.Cl [25T7-NBOMe (2d), 2-(2,5-Dimethoxy-4-(propylthio)phenyl)-N-(2-methoxybenzyl)ethan-1-amine Hydrochloride]	11.3	0.281	7.42					
COc1cc([N+](=O)[O-])c(OC)cc1CCNCc1ccccc1OC.Cl [25N-NBOMe (2f), 2-(2,5-Dimethoxy-4-nitrophenyl)-N-(2-methoxybenzyl)ethan-1-amine Hydrochloride]	2.53	0.374	1.09					sub-nanomolar
COc1cc(CCN)c(OC)cc1C.Cl [2C-D (1b), 2-(2,5-Dimethoxy-4-methylphenyl)ethan-1-amine Hydrochloride]	59.4	0.372	16.4					
